The source of these data is patent US4093715A, “5-Iodo-5'-amino-2',5'-dideoxycytidine and the pharmaceutically acceptable salts thereof” (priority 1977, dated 1978).

For data set [1], the system named is herpes simplex virus strain HSV-1 (prototype). As to the kind of experiment: Inhibition of herpes simplex virus replication (titre reduction by plaque assay) in infected Vero cells. In kind it is cell-based, herpes simplex virus type 1. How it is done:
The compounds of this invention manifest a high order to inhibition with various herpes simplex viruses. For example, when tested against strain HSV-1 (prototype) at a concentration of 400 μM the average log reduction in titre was 1.4.
(§1) Standard procedures were used to maintain the virus and the Vero cells. This included growth and titration by plaque assay as well as the replications of the virus in the presence of the test compounds. Cells were maintained and infected in Dulbecco's medium with 10% fetal calf serum.
For testing, the cells were infected with virus at a ratio of approximately 10 plaque forming units per cell. The viral inoculum was drained after one hour adsorption at 37° C. An appropriate volume of medium containing the compound for testing was added. After 36-48 hours at 37° C, the infected cells were frozen until ready for titration.

Data set [2] deals with experimental herpes simplex keratitis. As to the kind of experiment: Treatment of experimental herpes simplex keratitis in rabbits. As to conditions: topical drops 4 mg/ml at 4 hour intervals for 72 hours starting 24 hours after infection, graded daily for 11 days. The data set is classed as in vivo. The procedure:
One advantage of AIC has been established by the treatment of rabbits. In this study, experimental herpes simplex keratitis was established bilaterally in 16 rabbits. These were divided into 2 matched groups of 8. Each group was treated in a double blind fashion with topical drops at 4 hour intervals for 72 hours starting 24 hours after infection. The solutions administered were:
2. AIC, 4 mg/ml Each eye was examined daily for 11 days and graded by two ophthalmologists.

The test system of another data set is mice. In words: Acute toxicity in mice. In kind it is in vivo. The following applies: for lethality, acute toxicity: mice. How it is done: Acute toxicity of AIC in mice indicates no lethality at 200 mg/kg of body weight. However, at a level as high as 400 mg/kg the compound is lethal to mice.
A further data set concerns Vero cells. As to the kind of experiment: Cytotoxicity. In kind it is cell-based.
From the text: as §1

In another data set the test system is newborn rats. As to conditions: systemic administration; cited from earlier work.
For data set [3] the following is noted: cited from earlier work.
The next data set deals with pregnant rabbits. The following applies: topically to the eye, doses similar to those used clinically in humans; cited from earlier work.

`NC[C@H]1O[C@@H](n2cc(I)c(N)nc2=O)C[C@@H]1O` [AIC, 5-Iodo-5'-amino-2',5'-dideoxycytidine]: the log reduction at 400 µM in data set [1] (Human alphaherpesvirus 1, HSV-1 (prototype), 400 μM, infected Vero cells, ~10 pfu per cell, 36-48 hours at 37° C) was determined as 1.4. Further, in data set [2], the “therapeutic effectiveness in herpes simplex keratitis” value was “effective therapeutically”. The “lethality, acute toxicity” value with mice (200 mg/kg of body weight) was “no lethality”; in the data set on mice (400 mg/kg), “lethal”. For the same molecule, the “therapeutic index (in words)” value in the data set with mice (from acute toxicity in mice coupled with activity) was “good therapeutic index”. Besides, the cytotoxicity result in the data set on Vero cells (at treatment levels as high as 1600 μM) was “No cytotoxicity is evident”.
On to `O=c1[nH]c(=O)n([C@H]2C[C@H](O)[C@@H](CO)O2)cc1I` [idoxuridine, 5-iodo-deoxy-uridine], for which the “antiviral activity (in words)” value in data set [1] (at relatively low levels) is on record as “high order of activity”. Also, the teratogenicity entry with newborn rats and in the data set on pregnant rabbits was “teratogenicity” in each case. Moreover, in the data set on Vero cells (at a concentration of 50 μM), the cytotoxicity entry is reported as “almost totally cytotoxic”. For the same molecule, the undesirable side effects result in data set [3] (ocular use in herpes simplex keratitis) is “follicular and papillary conjunctivitis, and epithelial punctate keratopathy”. Further, the cellular toxicity entry in data set [3] (therapy of herpes simplex keratitis) was “significant cellular toxicity”.
